From ChEMBL document CHEMBL5614385, “A peptide-salinomycin conjugate with a bystander effect reduces the stemness characteristics of ovarian cancer cells and enhances drug sensitivity” (Eur J Med Chem, 2024) come the findings set out here.

Active and inactive are the calls of the source. The calls are words filed in the database; no cut-off is given here.

Test [1] relates to SK-OV-3. The test is described as follows: Inhibition of tumor sphere formation in agarose-treated human SK-OV-3 cells assessed as fold decrease in number of formed spheres by imaging analysis. The test is classed as functional.
A further test deals with A549. Put plainly: Cytotoxicity against human A549 cells assessed as inhibition of cell growth incubated for 72 hrs by CCK8 assay. The class given is functional, cell-based. The settings on record: A549, 72 h. For orientation: Tetrazolium assays rely on reduction of a dye to a coloured formazan, in cell work by metabolically active cells.
The next test has as its system ACHN. The test is described as follows: Cytotoxicity against human ACHN cells assessed as inhibition of cell growth incubated for 72 hrs by CCK8 assay. The test is classed as functional, cell-based.
The test system of a further test is HCCLM3. The test is described as follows: Cytotoxicity against human HCCLM3 cells assessed as inhibition of cell growth incubated for 72 hrs by CCK8 assay. The test is classed as functional, cell-based. The following applies: HCCLM3, 72 h.
For test [2], the system named is SK-OV-3. The test is described as follows: Antitumor activity against CD44 positive human SK-OV-3 cells assessed as reduction in cell viability incubated for 72 hrs by CCK8 assay. The test is classed as functional, cell-based. The settings on record: SK-OV-3, 72 h.
Another test deals with MIA PaCa-2. Put plainly: Cytotoxicity against human MIA PaCa-2 cells assessed as inhibition of cell growth incubated for 72 hrs by CCK8 assay. The test is classed as functional, cell-based. The settings on record: MIA PaCa-2, 72 h.
The subject of the next test is CAL-27. Put plainly: Cytotoxicity against human CAL-27 cells assessed as inhibition of cell growth incubated for 72 hrs by CCK8 assay. The test is classed as functional, cell-based. The settings on record: CAL-27, 72 h.
The subject of test [3] is SK-OV-3. The test is described as follows: Inhibition of cell migration in human SK-OV-3 cells at 5 uM incubated for 24 hrs by microscope based wound healing assay. The test is classed as functional.
The next test deals with MCF7. Put plainly: Cytotoxicity against human MCF7 cells assessed as inhibition of cell growth incubated for 72 hrs by CCK8 assay. The following applies: MCF7, 72 h. The test is classed as functional, cell-based.
Test [4] concerns SK-OV-3. The test is described as follows: Inhibition of AKT phosphorylation in human SK-OV-3 cells at 5 uM incubated for 24 hrs by Western blot analysis. The class given is cell-based.
The next test relates to A2780. Put plainly: Antitumor activity against CD44 negative human A2780 cells assessed as reduction in cell viability incubated for 72 hrs by CCK8 assay. The class given is functional, cell-based. The following applies: A2780, 72 h.
Another test relates to MDA-MB-231. Put plainly: Cytotoxicity against human MDA-MB-231 cells assessed as inhibition of cell growth incubated for 72 hrs by CCK8 assay. The class given is functional, cell-based. The settings on record: MDA-MB-231, 72 h.
The test system of test [5] is SK-OV-3. The test is described as follows: Inhibition of cell invasion in human SK-OV-3 cells incubated for 24 hrs by crystal violet staining based transwell invasion assay. The class given is functional. The settings on record: dose 5.0 µM.
The next test relates to A-431. The test is described as follows: Cytotoxicity against human A-431 cells assessed as inhibition of cell growth incubated for 72 hrs by CCK8 assay. The test is classed as functional, cell-based. The settings on record: A-431, 72 h.
For another test, the system named is HeLa. The test is described as follows: Cytotoxicity against human HeLa cells assessed as inhibition of cell growth incubated for 72 hrs by CCK8 assay. The test is classed as functional, cell-based.
The next test deals with SK-OV-3/CDDP. The test is described as follows: Cytotoxicity against human SK-OV-3/CDDP cells assessed as inhibition of cell proliferation incubated for 72 hrs by CCK8 assay. The test is classed as functional, cell-based.
Test [6] deals with Vascular endothelial growth factor receptor 2 (Homo sapiens) (UniProt P35968). The test is described as follows: Inhibition of VEGFR2 phosphorylation in human SK-OV-3 cells at 5 uM incubated for 24 hrs by Western blot analysis. The class given is cell-based.
Chain of Vascular endothelial growth factor receptor 2 (Homo sapiens) (P35968 whole entry): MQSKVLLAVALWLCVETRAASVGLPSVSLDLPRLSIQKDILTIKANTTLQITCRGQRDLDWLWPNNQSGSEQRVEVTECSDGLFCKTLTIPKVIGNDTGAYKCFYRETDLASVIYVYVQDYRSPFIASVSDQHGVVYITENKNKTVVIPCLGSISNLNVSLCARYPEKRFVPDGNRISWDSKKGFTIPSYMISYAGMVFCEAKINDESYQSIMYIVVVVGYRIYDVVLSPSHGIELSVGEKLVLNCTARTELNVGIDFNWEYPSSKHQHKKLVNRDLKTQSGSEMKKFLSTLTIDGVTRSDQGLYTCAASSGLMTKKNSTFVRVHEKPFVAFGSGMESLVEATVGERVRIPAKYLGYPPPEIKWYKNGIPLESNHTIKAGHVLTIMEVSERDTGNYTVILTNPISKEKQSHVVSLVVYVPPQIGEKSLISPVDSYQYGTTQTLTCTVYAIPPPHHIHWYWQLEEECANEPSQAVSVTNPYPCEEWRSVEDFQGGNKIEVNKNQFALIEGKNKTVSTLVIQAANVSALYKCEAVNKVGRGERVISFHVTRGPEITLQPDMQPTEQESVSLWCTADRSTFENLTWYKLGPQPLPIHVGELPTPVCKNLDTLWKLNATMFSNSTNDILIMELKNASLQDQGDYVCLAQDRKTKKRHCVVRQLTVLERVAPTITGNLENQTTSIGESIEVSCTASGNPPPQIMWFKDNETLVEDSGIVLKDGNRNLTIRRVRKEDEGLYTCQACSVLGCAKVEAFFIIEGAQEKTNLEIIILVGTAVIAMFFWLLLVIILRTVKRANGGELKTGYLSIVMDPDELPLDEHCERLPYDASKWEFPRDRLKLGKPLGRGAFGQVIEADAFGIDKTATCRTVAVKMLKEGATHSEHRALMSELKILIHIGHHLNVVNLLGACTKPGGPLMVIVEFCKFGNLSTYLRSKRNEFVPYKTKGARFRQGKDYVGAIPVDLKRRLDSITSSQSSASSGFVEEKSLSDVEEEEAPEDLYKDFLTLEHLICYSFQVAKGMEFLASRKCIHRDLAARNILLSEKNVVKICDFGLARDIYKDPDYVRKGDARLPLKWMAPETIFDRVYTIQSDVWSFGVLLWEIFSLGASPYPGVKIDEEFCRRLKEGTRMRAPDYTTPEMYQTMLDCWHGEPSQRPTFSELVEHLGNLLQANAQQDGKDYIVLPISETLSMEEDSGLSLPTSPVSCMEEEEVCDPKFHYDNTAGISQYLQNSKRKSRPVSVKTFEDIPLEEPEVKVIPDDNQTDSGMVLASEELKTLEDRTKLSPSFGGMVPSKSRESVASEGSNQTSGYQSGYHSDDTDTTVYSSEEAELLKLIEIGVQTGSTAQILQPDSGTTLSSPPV
The test system of another test is MKN-45. The test is described as follows: Cytotoxicity against human MKN-45 cells assessed as inhibition of cell growth incubated for 72 hrs by CCK8 assay. The test is classed as functional, cell-based. The following applies: MKN-45, 72 h.
Another test has as its system DU-145. The test is described as follows: Cytotoxicity against human DU-145 cells assessed as inhibition of cell growth incubated for 72 hrs by CCK8 assay. The test is classed as functional, cell-based. The settings on record: DU-145, 72 h.
Test [7] deals with SK-OV-3. Put plainly: Inhibition of tumor sphere formation in agarose-treated human SK-OV-3 cells assessed as decrease in number of formed spheres at 10 nM incubated for 9 days by imaging analysis. The class given is functional, cell-based. The settings on record: time 9.0 day.

For orientation: IC50 means the point on the concentration scale where inhibition reaches its midpoint. For the compound `CC[C@@H](C(=O)[O-])C1CC[C@H](C)C([C@@H](C)[C@H](O)[C@H](C)C(=O)[C@H](CC)C2O[C@]3(C=C[C@@H](NC(=O)CCSSc4ccccc4)[C@]4(CC[C@@](C)(C5CC[C@](O)(CC)[C@H](C)O5)O4)O3)[C@H](C)C[C@@H]2C)O1.[Na+]` (stereo not given in full), the “fold change (FC)” value in the test with SK-OV-3 [1] is 4.6. For the same compound, the half-maximal inhibitory concentration (IC50) in the test with A549 turned out to be 14.4 µM; in the test with ACHN, 7.37 µM; in the test with HCCLM3, 1.33 µM; with SK-OV-3 [2] it was 4.39 µM; with MIA PaCa-2, 1.14 µM; with CAL-27, 3.73 µM. In addition, the IC50 in the test on MCF7 is 8.23 µM; with A2780, 0.11 µM; with MDA-MB-231, 0.98 µM; in the test on A-431 it was 2.95 µM; in the test on HeLa, 3.76 µM; with SK-OV-3/CDDP, 4.45 µM. Further, the IC50 in the test with MKN-45 worked out at 1.47 µM; with DU-145, 30.9 µM. Further, the inhibition result (in the test with SK-OV-3 [3]; in the test with SK-OV-3 [4]; in test [6]) was “Active” throughout. The inhibition entry with SK-OV-3 [5] was “Dose-Dependent Effect”.

Consider `CC(=O)O[C@H]1C(=O)[C@@]2(C)[C@H]([C@H](OC(=O)c3ccccc3)[C@]3(O)C[C@H](OC(=O)[C@H](O)[C@@H](NC(=O)c4ccccc4)c4ccccc4)C(C)=C1C3(C)C)[C@]1(OC(C)=O)CO[C@@H]1C[C@@H]2O`, for which the inhibition entry with SK-OV-3 [7] was “Active”.
